Marks after values point to notes of the source that are not given here.
What was measured:
[1] = tested on: patients with idiopathic and diabetic gastroparesis; test: Phase II study VLY-686-2301, double blind randomized portion (Example 5); format: in vivo, human; settings: for CGI-S, change from baseline / DD-% Nausea Free Days, change from baseline / DD-Nausea (Daily Diary Nausea Score, 0-5), change from baseline / GCSI, change from baseline / PAGI-SYM, change from baseline / PGI-C: 4 weeks; for Daily Diary Nausea Weekly Average, Effect size estimate: tradipitant treatment arm
Description: In a phase II study of tradipitant in patients with idiopathic and diabetic gastroparesis, participants enter a 4 week screening period prior to treatment with tradipitant, during which they answer a daily symptom questionnaire rating their nausea severity on a scale of 0 to 5, in which 0 represents no nausea, 1 represents very mild nausea, 2 represents mild nausea, 3 represents moderate nausea, 4 represents severe nausea, and 5 represents very severe nausea. After the 4 week screening period, 141 gastroparesis patients in an Intent to Treat (ITT) population enter the 4 week double blind randomized portion of the study, in which they receive either tradipitant 85 mg bid, or placebo. Several symptom severity scales are used to assess gastroparesis symptoms, including the […] (GCSI), Patients Assessment of Upper Gastrointestinal Disorders-Symptoms (PAGI-SYM), and Patient Global Impression of Change (PGI-C), as well as a Clinician Global Impression of Severity (CGI-S). After 4 weeks of blinded study drug treatment, patients have the opportunity to enter an additional 8 week open label extension, during which each subject receives tradipitant 85 mg bid.
Abbreviations used in Table 6 include: Daily Diary Nausea Score, 0-5 (DD-Nausea); Daily Diary Nausea Free Days, percent 0-100 (DD-% Nausea Free Days); Intent to Treat (ITT); Gastroparesis Cardinal Symptom Index (GCSI); Patient Assessment of Gastrointestinal Disorders-Symptoms (PAGI-SYM); Clinician Global Impression of Severity (CGI-S); Patient Global Impression of Change (PGI-C). For DD-Nausea, DD-% Nausea Free Days, GCSI, PAGI-SYM and CGI-S, the values shown are changes from baseline.

[2] = tested on: healthy subjects; test: Gamma scintigraphic gastrointestinal motility study in healthy subjects; format: in vivo, human; settings: single oral dose 20 mg or 200 mg
Experimental: A single-center, randomized, double-blind, placebo-controlled study is conducted to investigate the effect of tradipitant on small bowel transit time. A total of 15 healthy subjects, 12 men and 3 women, between the ages of 19 and 63 years are enrolled in the study and receive at least 1 dose of study medication. A total of 13 subjects complete the study. Subjects are randomized to receive 20 mg of tradipitant, 200 mg of tradipitant, or placebo as a single oral dose within each of 3 periods, co-administered with a capsule radiolabeled with a maximum of 1MBq ^111In. Four hours post-dose, all subjects also receive a second capsule radiolabeled with a maximum of 4MBq ^99mTc. Each subject receives all 3 doses during the study. For all dosing regimens, in vivo gamma scintigraphic studies are performed at predetermined intervals, and the following scintigraphic parameters are analyzed: onset and completion of gastric emptying, onset and completion of colon arrival, initiation and completion of small bowel transit, and initial and complete disintegration of the capsule (anatomical location and time).

[3] = tested on: apomorphine-induced emesis; test: Apomorphine emetic challenge in beagle dogs; format: in vivo, beagle dog; settings: for Total No. Emetic Episodes: apomorphine 0.1 mg/kg iv 2 hours later, 5 dogs
Experimental: Over the five (5) weeks of the study, each animal receives each of the treatments, but only one per week. The purpose of this study is to determine if tradipitant suppresses apomorphine-induced emesis.
All animals are dosed over a period of five (5) weeks, with each dog receiving one of five different treatments on each day of dosing.
All dogs are fasted overnight prior to each treatment day and then fed approximately one (1) hour after oral dosing (approximately one (1) hour prior to administration of apomorphine). Individual doses are adjusted weekly for changes in body weight.
The dose regimen consists of a 5×5 Latin square design, in which each subject receives 1 dose or dose combination per week (6 day washout) as shown in Table 3 below.

[4] = molecular target: T1, NK-1 receptor (Cavia porcellus, UniProt P30547); test: GR73632-induced vocalization in guinea pigs; format: in vivo, guinea pig
T1 construct: from tissue; host or cells: living guinea pigs (central NK-1 receptors)
Experimental: Male Dunkin/Hartley guinea pigs (200 to 250 grams) are orally administered either vehicle or an NK-1 antagonist. Approximately 45 minutes later (for dose response studies), the animals are anesthetized and 0.1 nmol of GR73632 (SP analog) in a vehicle volume of 5 μl is injected into the cerebral ventricle at the intersection of bregma and the midline of the skull. Animals are placed in a dark testing chamber located inside of a sound attenuation cubicle and vocalizations are recorded for 30 minutes following recovery from anesthesia. The time spent vocalizing is quantified for each animal. In the duration of action study, 0.1 mg/kg of tradipitant or vehicle solution is administered orally and then 2, 4, or 7 hours later, 0.1 nmol of GR73632 is administered into the cerebral ventricle as described above. Vocalizations are recorded and quantified as indicated above. Vehicle solutions are either CMC (FIG. 4 data) or an ethanol/emulphor solution (FIGS. 5 and 6). Data is analyzed using one-tailed t-tests.

[5] = ITT Population, 85 mg bid, n = 73
[6] = Vomiting Population, 85 mg bid, n = 58

T1 sequence (P30547 whole entry): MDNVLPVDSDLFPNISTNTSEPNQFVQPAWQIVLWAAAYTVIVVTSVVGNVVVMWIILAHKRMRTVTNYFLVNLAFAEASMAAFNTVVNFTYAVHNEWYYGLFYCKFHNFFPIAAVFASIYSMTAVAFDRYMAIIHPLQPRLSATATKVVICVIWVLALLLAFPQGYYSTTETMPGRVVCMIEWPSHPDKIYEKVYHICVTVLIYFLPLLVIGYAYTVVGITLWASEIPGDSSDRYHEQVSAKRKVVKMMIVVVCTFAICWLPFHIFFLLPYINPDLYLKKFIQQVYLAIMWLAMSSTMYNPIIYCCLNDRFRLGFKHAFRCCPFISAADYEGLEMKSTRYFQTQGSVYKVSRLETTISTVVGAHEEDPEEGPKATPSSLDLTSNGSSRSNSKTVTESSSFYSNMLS

suppression of agonist-induced vocalization ([4]; 0.1 mg/kg oral, 7 hours after administration): significantly active
inhibitory activity on vocalization ([4]; at and below 0.1 mg/kg): retains significant inhibitory activity
inhibition of agonist-induced vocalization ([4]; oral, 10, 1.0, 0.1 and 0.05 mg/kg (each p<0.001)): significant inhibition
duration of activity ([4]; oral, guinea pig): exceeds 7 hours
minimum effective dose (MED), inhibition of vocalization ([4]; oral, guinea pig): 0.025 mg/kg
Structure (SMILES): O=C(c1ccccc1Cl)c1cccnc1-c1nnn(Cc2cc(C(F)(F)F)cc(C(F)(F)F)c2)c1-c1ccncc1 [Tradipitant, {2-[1-(3,5-bistrifluoromethylbenzyl)-5-pyridin-4-yl-1H-[1,2,3]triazol-4-yl]-pyridin-3-yl}-(2-chlorophenyl)-methanone]
tolerability ([1]; 85 mg bid, confirms prior studies' findings): well tolerated
CGI-S, change from baseline [1, 5]: −1.13
DD-% Nausea Free Days, change from baseline [1, 5]: 28.8%
DD-Nausea (Daily Diary Nausea Score, 0-5), change from baseline [1, 5]: −1.25
GCSI, change from baseline [1, 5]: −0.93
PAGI-SYM, change from baseline [1, 5]: −0.93
PGI-C [1, 5]: 2.66
DD-Nausea (Daily Diary Nausea Score, 0-5), change from baseline ([1]; ITT Population, 85 mg bid, n = 73, listed as tradipitant): −1.2
CGI-S, change from baseline [1, 6]: −1.24
DD-% Nausea Free Days, change from baseline [1, 6]: 32.3%
DD-Nausea (Daily Diary Nausea Score, 0-5), change from baseline [1, 6]: −1.43
GCSI, change from baseline [1, 6]: −1.10
PAGI-SYM, change from baseline [1, 6]: −1.06
PGI-C [1, 6]: 2.52
DD-Nausea (Daily Diary Nausea Score, 0-5), change from baseline ([1]; Vomiting Population, 85 mg bid, n = 58, listed as tradipitant): −1.4
Daily Diary Nausea Weekly Average, Effect size estimate ([1]; Week 1 vs Week 2): 0.314
Daily Diary Nausea Weekly Average, Effect size estimate ([1]; Week 1 vs Week 3): 0.5556
Daily Diary Nausea Weekly Average, Effect size estimate ([1]; Week 1 vs Week 4): 0.592
Daily Diary Nausea Weekly Average, Effect size estimate ([1]; Week 2 vs Week 3): 0.2416
Daily Diary Nausea Weekly Average, Effect size estimate ([1]; Week 2 vs Week 4): 0.278
Daily Diary Nausea Weekly Average, Effect size estimate ([1]; Week 3 vs Week 4): 0.03647
effect on small bowel transit time [2]: statistically significant effect
effect on gastric emptying ([2]; study underpowered): No effect
Total No. Emetic Episodes ([3]; 0.3 mg/kg oral): 1**
Total No. Emetic Episodes ([3]; 1.0 mg/kg oral): 1**
Total No. Emetic Episodes ([3]; 3.0 mg/kg oral): 1**
effect against apomorphine-induced emesis ([3]; each dose tested (0.3, 1.0, and 3.0 mg/kg)): effective

From patent US20220096449A1, “METHOD OF TREATMENT WITH TRADIPITANT” (Vanda Pharmaceuticals Inc., priority 2018, published 2022)
